{
  "source": "patent US20210360915A1",
  "about": "“CRYOPRESERVING COMPOSITIONS” (UNIVERSITY OF WARWICK, priority 2018, published 2021)",
  "key": {"[1]": {"tested_on": "β-galactosidase (β-Gal)", "assay": "β-Gal activity recovery after frozen storage (ONPG assay)", "type": "biochemical, bacterial", "settings": "frozen at −20° C. for 3 days, thawed at 20° C.; PEG, PVP, Trehalose, HES 100 mg·mL^−1, PVA 1 mg·mL^−1", "experimental": "Samples were made in triplicate at the appropriate concentrations and frozen in 1.5 mL tubes by directly placing in a freezer either at −20° C. or −80° C. The samples were then held at this temperature for the indicated time period and then thawed at 20° C.\nAbsorbance was measured at 420 nm. All other methods are in the supporting information.\nAbsorbance was measured at 420 nm.\nActivity was tested after thawing at 20° C. (FIG. 6B)."}, "[2]": {"target": "β-Gal (Escherichia coli, UniProt P00722)", "sequence (P00722 2-1024)": "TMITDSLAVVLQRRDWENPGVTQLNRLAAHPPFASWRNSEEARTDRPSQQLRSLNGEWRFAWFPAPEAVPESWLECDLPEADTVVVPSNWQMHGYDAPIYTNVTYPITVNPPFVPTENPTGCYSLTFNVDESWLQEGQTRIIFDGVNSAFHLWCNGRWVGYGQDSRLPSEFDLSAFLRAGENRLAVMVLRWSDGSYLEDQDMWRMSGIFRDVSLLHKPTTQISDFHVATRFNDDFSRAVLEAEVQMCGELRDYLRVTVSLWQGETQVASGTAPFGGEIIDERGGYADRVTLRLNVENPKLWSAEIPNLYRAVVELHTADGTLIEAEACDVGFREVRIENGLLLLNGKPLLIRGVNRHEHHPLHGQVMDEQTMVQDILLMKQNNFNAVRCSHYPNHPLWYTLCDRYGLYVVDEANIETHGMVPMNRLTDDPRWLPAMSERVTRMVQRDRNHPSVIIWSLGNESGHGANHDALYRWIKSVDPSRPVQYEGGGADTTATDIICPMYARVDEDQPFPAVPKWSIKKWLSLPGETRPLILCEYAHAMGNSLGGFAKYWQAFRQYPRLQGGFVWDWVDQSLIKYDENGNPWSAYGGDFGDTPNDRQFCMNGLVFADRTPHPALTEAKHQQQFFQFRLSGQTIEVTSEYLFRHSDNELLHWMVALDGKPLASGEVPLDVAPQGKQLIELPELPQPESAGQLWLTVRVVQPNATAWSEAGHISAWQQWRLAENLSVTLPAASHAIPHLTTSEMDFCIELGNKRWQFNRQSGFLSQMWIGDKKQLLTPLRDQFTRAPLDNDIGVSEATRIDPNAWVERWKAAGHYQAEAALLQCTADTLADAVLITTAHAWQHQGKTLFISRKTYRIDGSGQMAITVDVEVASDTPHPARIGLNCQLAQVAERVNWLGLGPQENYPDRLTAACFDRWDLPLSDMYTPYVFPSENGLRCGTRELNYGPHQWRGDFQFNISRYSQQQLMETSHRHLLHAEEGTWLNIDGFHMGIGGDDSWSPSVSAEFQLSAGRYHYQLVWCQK", "settings": "1 hour incubation without freeze/thaw", "experimental": "β-Gal activity was determined by a colorimetric assay involving the use of ONPG. Briefly aliquots of 30 μL of 4 mg·mL-1 ONPG were added to wells of a 96 well plate containing 50 μL of 20 μg·mL^−1 B-Gal solution. This was then incubated at room temperature for 5 minutes and quenched by addition of 50 μL of 1M Na2CO3 solution. Absorbance was measured at 420 nm.\nSince under standard laboratory conditions, proteins are normally stored at −80° C. through long periods, we decided to test the levels of protein activity after long term ultra-low temperature conditions."}, "[3]": {"tested_on": "E. coli", "experimental": "Each component (at the useful cryopreservation concentration) was incubated with E. coli overnight at 4° C. and subsequently the number of colony forming units determined, FIG. 2B."}, "[4]": {"tested_on": "M. smegmatis", "assay": "M. smegmatis colony recovery after 7 freeze/thaw cycles", "type": "cell-based, Mycobacterium smegmatis", "from_the_text": "(§1) Bacillus subtilis was chosen as a Gram positive strain and Mycobacterium smegmatis as a Mycobacteria (distinct cell wall compared to other Gram positives) for further analysis. Using the same conditions as for E. coli, the cells were exposed to 7 freeze/thaw cycles and recovered colonies counted, Table 1 and FIG. 4. To enable comparison of the data and to account for the different growth rates of each bacterial strain, the recovered colonies were also normalised to the highest recovery."}, "[5]": {"tested_on": "E. coli", "assay": "E. coli colony recovery after 7 freeze/thaw cycles", "type": "cell-based, Escherichia coli", "parameters": "Mean colonies recovered, E. coli, Total: dose or concentration left out as unconfirmed", "experimental": "E. coli was added to different cryoprotective formulations and then exposed to 7 freeze/thaw cycles from liquid nitrogen (−196° C.) to room temperature (20° C.) and the number of colony forming units determined by growth on agar plates for 16 hours was recorded (see FIG. 2A). This was chosen to mimic laboratory conditions where stocks are often frozen and thawed during use.\nIn some down-stream applications, […].\nas §1"}, "[6]": {"tested_on": "E. coli", "assay": "Post-thaw growth profile of E. coli by OD600", "type": "cell-based, Escherichia coli", "settings": "7 freeze/thaw cycles in liquid nitrogen, then inoculated into LB media", "from_the_text": "This macromolecular cryoprotection solution using ice-inhibiting polymers is clearly suitable for bacteria storage but there are many parameters which can be varied in this system including the molecular weight of the polymers. To enable a large number of conditions to be screened, the post-thaw growth rate of E. coli was also followed by OD600 (turbidity) measurements, which enable higher-throughput measurements. E. coli were frozen with the indicated formulations, and post-thaw inoculated into LB media and their growth monitored.\nThe improvement was most significant in the case of larger PEGs."}, "[7]": {"tested_on": "B. subtilis", "assay": "B. subtilis colony recovery after 7 freeze/thaw cycles", "type": "cell-based, Bacillus subtilis", "from_the_text": "as §1"}, "[8]": {"settings": "concentrations as in table footnote, ± SD"}, "[9]": {"settings": "normalised to the highest recovery"}},
  "data": [
    {"compound": "OC[C@H]1O[C@H](O[C@H]2O[C@H](CO)[C@@H](O)[C@H](O)[C@H]2O)[C@H](O)[C@@H](O)[C@@H]1O", "note": "[trehalose]", "values": [
      {"measurement": "protection of β-Gal activity", "setting": "[1]", "value": "protected β-Gal activity"},
      {"measurement": "β-Gal function after incubation with cryoprotectant", "setting": "[2]", "value": "some negative effects on protein function"}
    ]},
    {"compound": "OCC(O)CO", "note": "[25% Glycerol, glycerol]", "values": [
      {"measurement": "recovered colonies after overnight incubation with cryoprotectant (toxicity)", "setting": "[3]", "value": "significant reduction in recovered colonies"},
      {"measurement": "Mean colonies recovered, M. smegmatis, Total", "setting": "[4]; [8]", "value": "30 ± 6.0"},
      {"measurement": "Mean colonies recovered, M. smegmatis, Normalised", "setting": "[4]; [9]", "value": 88, "unit": "%"},
      {"measurement": "recovered colonies (colony forming units)", "setting": "[5]; 7 freeze (−196° C.)/thaw (20° C.) cycles, growth on agar plates for 16 hours, PEG/PVA 100 + 1 mg·mL^−1", "value": 15},
      {"measurement": "Mean colonies recovered, E. coli, Normalised", "setting": "[5]; 7 freeze/thaw cycles, normalised to the highest recovery", "value": 22, "unit": "%"},
      {"measurement": "Mean colonies recovered, E. coli, Total", "setting": "[5]; 7 freeze/thaw cycles, ± SD", "value": "15 ± 2.8"},
      {"measurement": "post-thaw growth rate (OD600)", "setting": "[6]", "value": "essentially identical growth rates"},
      {"measurement": "Mean colonies recovered, B. subtilis, Total", "setting": "[7]; [8]", "value": "93 ± 18.9"},
      {"measurement": "Mean colonies recovered, B. subtilis, Normalised", "setting": "[7]; [9]", "value": 35, "unit": "%"}
    ]}
  ]
}
